The source of these data is US8414760B2, “Biosensor electrode mediators for regeneration of cofactors” (priority 1997, dated 2013).

In assay [1] the test system is D-3-Hydroxybutyrate dehydrogenase (HBDH). Put plainly: Assessment of mediator inhibition of D-3-hydroxybutyrate dehydrogenase (assay rate before and after filtration). The class given is biochemical, Pseudomonas sp. Set-up: Residual enzyme activity after filtration (percentage of the original activity): concentration or dose not given beside the values. To be noted: for Assay Rate before filtration: 50 U/ml HBDH with mediator in Tris buffer pH 8.2, incubated 0.5 hours at 37.5 C, NADH at 340 nm, measure of efficiency as oxidant of NADH; for Residual enzyme activity after filtration (percentage of the original activity): compared with control (no mediator); for Assay Rate after filtration: enzyme reisolated from the mediator solution by filtration (30,000 cut-off), redissolved in Tris buffer. The method, then:
D-3-Hydroxybutyrate dehydrogenase (HBDH; EC 1.1.1.30) from Pseudomonas sp. was purchased from Toyobo Co., Ltd. p-Nicotinamide adenine dinucleotide (NAD^+) and D,L-3-hydroxybutyric acid were supplied by Boehringer Mannheim.
A series of 18 solutions (2.5 ml each) were prepared, each containing 50 U/ml HBDH and 1.29 or 2.58 mg of the following NAD(P)H mediators: MB(3), 4-Me-BQ(4), 1-Me0-PMS (5), DCIP(6), 1,10-PQ(7), 1,7-PQ(8), 2,9-Me2-1,10-PQ(10), 1-Me-1,10-PQ^+ (11), and [Ru(bpy)2(1,10-PQ)](PF6)2 (12) in Tris buffer (50 mM, pH 8.2). A control solution was also prepared, containing enzyme but no mediator. The solutions were incubated for 0.5 hours at 37.5 C, then assayed (in triplicate) for NADH at 340 nm, using a Sigma Diagnostics D-3-hydroxybutyrate kit. The extent of the interference of the added mediator with the assay rate compared to the control afforded a quantitative measure of the mediator's efficiency as an oxidant of NADH.
The enzyme was then reisolated from the mediator solutions by filtration through a polysulfone membrane (nominal molecular weight cut-off: 30,000) in a microcentrifuge filter (Millipore). The enzyme remaining on the filter was dissolved in Tris buffer (0.2 ml), and the resulting solution was assayed (in triplicate) with the Sigma kit. By comparing the results of the assays before and after filtration, the effect of any covalently and/or irreversibly bound mediator on the enzyme activity could be determined.

Assay [2] can be described thus: Evaluation of mediators as NADH mediators in dry strips (screen-printed electrodes, NADH dose response). The method, then:
Screen-printed electrodes incorporating 1,10-PQ and MB were produced from an organic carbon ink containing these NAD(P)H mediators at a level of 3.5 mg/g ink. The solid mediators were mixed into a commercial conducting carbon ink (Gwent Electronic Materials).
The dose response curve for the electrodes containing 1,10-PQ tested with aqueous NADH solutions (0-16.7 mM) in PBS at a poise potential of +400 mV versus a printed Ag/AgCl reference electrode is shown in FIG. 3. A slope of 0.58 nA mM^−1 NADH was recorded. The dose response curve for the electrodes containing MB tested with aqueous NADH solutions (0-12.4 mM) at a poise potential of +100 mV versus a printed Ag/AgCl reference electrode is shown in FIG. 4. An increased slope of 8.48 μA mM^−1 NADH was observed.

Assay [3] is described as follows: Dry strips containing HBDH and NAD+: response to D-3-hydroxybutyrate after storage. The method, then:
Screen-printed electrodes were produced from an aqueous carbon ink incorporating 1,10-PQ or MB at a level of 2.4 or 4.3 mg/g ink, respectively, together with the enzyme HBDH (120 units/g ink) and NAD^+ (110 mg/g ink). The ink also contained a polysaccharide binder.
The electrodes were tested after 4, 14, and 26 weeks of storage (30° C., desiccated) with aqueous D-3-hydroxybutyrate solutions (0-25 mM) in PBS at a poise potential of +400 mV versus a printed Ag/AgCl reference electrode. All three dose responses were non-linear and levelled out with a current of 8.5 μA being recorded at 24 mM D-3-hydroxybutyrate.
The electrodes were tested after 2 and 14 weeks storage (30° C., desiccated) with aqueous D-3-hydroxybutyrate solutions (0-28 mM) in PBS at a poise potential of +100 mV versus a printed Ag/AgCl reference electrode. The dose response curves were similar to those in FIG. 4. A current of 8.6 μA was recorded at 24 mM D-3-hydroxybutyrate for these electrodes after 2 weeks storage. This is almost identical to responses obtained from dry strips containing 1,10-PQ.

With `C[n+]1cccc2c1-c1ncccc1C(=O)C2=O.O=S(=O)([O-])C(F)(F)F` [1-Me-1,10-PQ^+, 1-Me-1,10-phenanthrolinium quinone trifluoromethane sulphonate], in assay [1], the “Assay Rate before filtration” value turned out to be 0.150 absorbance units/min, the “Residual enzyme activity after filtration (percentage of the original activity)” value is given as 94% and the “Assay Rate after filtration” value was found to be 0.185 absorbance units/min.

In the case of `COS(=O)(=O)[O-].COc1cccc2c1nc1ccccc1[n+]2C` [Compound 1-MeO-PMS, 1-Methoxy phenazine methosulphate], in assay [1], the “Assay Rate before filtration” value is on record as 0.009 absorbance units/min, the “Residual enzyme activity after filtration (percentage of the original activity)” value was 47% and the “Assay Rate after filtration” value turned out to be 0.071 absorbance units/min.

As for `O=C1C(=O)c2cccnc2-c2ncccc21` [1,10-PQ, 1,10-Phenanthroline quinone], the “Slope of dose response curve to NADH” value in assay [2] (electrodes containing 1,10-PQ, NADH 0-16.7 mM in PBS, +400 mV versus Ag/AgCl) was found to be 0.58 nA mM^−1 NADH. Further, in assay [3] (after 4, 14 and 26 weeks of storage (30° C., desiccated), +400 mV versus Ag/AgCl), the “Current at 24 mM D-3-hydroxybutyrate” value was 8.5 μA. Also, in assay [1], the “Assay Rate before filtration” value was determined as 0.149 absorbance units/min and the “Assay Rate after filtration” value is given as 0.160 absorbance units/min.

Turning to `C[N+](C)=c1ccc2nc3c(ccc4ccccc43)oc-2c1.[Cl-]` [MB, Meldola's Blue], the “Slope of dose response curve to NADH” value in assay [2] (electrodes containing MB, NADH 0-12.4 mM, +100 mV versus Ag/AgCl) is listed as 8.48 μA mM^−1 NADH. Also, the “Current at 24 mM D-3-hydroxybutyrate” value in assay [3] (after 2 weeks storage (30° C., desiccated), +100 mV versus Ag/AgCl) is given as 8.6 μA. In addition, in assay [1], the “Assay Rate before filtration” value came to 0.008 absorbance units/min, the “Residual enzyme activity after filtration (percentage of the original activity)” value came to 16% and the “Assay Rate after filtration” value came to 0.026 absorbance units/min.

`CC1=CC(=O)C(=O)C=C1` [Compound 4-Me-BQ, 4-Methyl-1,2-benzoquinone]: in assay [1], the “Assay Rate before filtration” value is listed as 0.005 absorbance units/min, the “Residual enzyme activity after filtration (percentage of the original activity)” value was found to be 4% and the “Assay Rate after filtration” value worked out at 0.007 absorbance units/min.

As to “[Ru(bpy)2(1,10-PQ)] (PF6)2 [[Ru(bpy)2(1,10-PQ)](PF6)2]”, in assay [1], the “Assay Rate before filtration” value worked out at 0.114 absorbance units/min, the “Residual enzyme activity after filtration (percentage of the original activity)” value was 98% and the “Assay Rate after filtration” value is on record as 0.193 absorbance units/min.

On to `Cc1ccc2c(n1)-c1nc(C)ccc1C(=O)C2=O` [2,9-Me2-1,10-PQ, 2,9-Dimethyl-1,10-phenanthroline quinone], for which the “Assay Rate before filtration” value in assay [1] was determined as 0.189 absorbance units/min.

Turning to `O=C1C(Cl)=CC(=Nc2ccc(O)cc2)C=C1Cl` [DCIP, 2,6-Dichloroindophenol], in assay [1], the “Assay Rate before filtration” value is recorded as 0.104 absorbance units/min, the “Residual enzyme activity after filtration (percentage of the original activity)” value was 57% and the “Assay Rate after filtration” value is recorded as 0.085 absorbance units/min.

On to `O=C1C(=O)c2ncccc2-c2ncccc21` [1,7-PQ, 1,7-Phenanthroline quinone], for which, in assay [1], the “Assay Rate before filtration” value came to 0.115 absorbance units/min and the “Assay Rate after filtration” value stood at 0.150 absorbance units/min.
